Measured values taken from patent US20250051276A1 (priority 2021, published 2025).
pEC50, pIC50: −log10 of the molar value.

Tests used:
5HT2A sensor [1] = conditions: cited from earlier work
5HT2A sensor [2] = conditions: cited from earlier work; remark: listed apart in the source
5-HT2A [3] = target: T1, 5-HT2A (Homo sapiens, UniProt P28223); assay: Serotonin 5-HT2A in vitro cellular IPOne agonism assay; format: cell-based; set-up: host or cells: CHO-K1; conditions: CHO-K1 cells, IPOne HTRF, agonist mode
Description: (§1) Serotonin 5-HT2A In Vitro Cellular IPOne Agonism Assay. The 5-HT2A IPOne HTRF assay was performed at Epics Therapeutics S.A. (Belgium, FAST-0505I) using conventional methods. Briefly, CHO-K1 cells expressing human recombinant 5-HT2A receptor grown to mid-log phase in culture media without antibiotics were detached with PBS-EDTA, centrifuged, and resuspended in medium without antibiotics buffer. 20,000 cells were distributed in a 96 well plate and incubated overnight at 37° C. with 5% CO2.
For agonist testing, the medium was removed and 20 μl of assay buffer plus 20 μl of test compound or reference agonist are added in each well. The plate is incubated for 60 min. at 37° C. with 5% CO2.
(§2) After addition of the lysis buffer containing IP1-d2 and anti-IP1 cryptate detection reagents, plates were incubated 1-hour at room temperature, and fluorescence ratios were measured according to the manufacturer specification, with the HTRF kit.

5-HT2A [4] = target: T1, 5-HT2A; assay: Serotonin 5-HT2A in vitro radioligand binding competition assay; set-up: purchased Epics Therapeutics S.A. (Belgium) FAST-0505B; host or cells: membrane extracts; conditions: radiotracer [3H]-DOI, membrane extracts
Description: Serotonin 5-HT2A In Vitro Radioligand Binding Competition Assay. The 5-HT2A radioligand binding competition assay was performed at Epics Therapeutics S.A. (Belgium, FAST-0505B) using conventional methods. Briefly, competition binding was performed in duplicate in the wells of a 96 well plate (Master Block, Greiner, 786201) containing binding buffer (optimized for each receptor), membrane extracts (amount of protein/well optimized for each receptor), radiotracer [^3H]-DOI (final concentration optimized for each receptor) and test compound. Nonspecific binding was determined by co-incubation with 200-fold excess of cold competitor. The samples were incubated in a final volume of 0.1 ml at a temperature and for a duration optimized for each receptor and then filtered over filter plates. Filters were washed six times with 0.5 ml of ice-cold washing buffer (optimized for each receptor) and 50 µl of Microscint 20 (Packard) were added in each well. The plates were incubated 15 min on an orbital shaker and then counted with a TopCount™ for 1 min/well.

rat cortical neurons = assay: Neurite outgrowth in primary neuronal cultures assay; format: cell-based; set-up: key: A: Statistically significant mean increase as a percent of DMSO control at 10 μM or less; B: No statistically significant mean increase as a percent of DMSO control at 10 μM or less; conditions: 72 h, vs DMSO control, 10 μM or less
From the text: Neurite Outgrowth in Primary Neuronal Cultures Assay. Changes in the pattern of neurite outgrowth have been implicated in psychiatric and neurodegenerative disorders as well as traumatic injuries. The discovery of new compounds that can positively affect neuritogenesis are important for developing new therapeutics for neurological diseases. Measurement of neurite outgrowth of rat cortical neurons using an automated image-based assay was used to determine the neuroplastic effects of the compounds of the present disclosure. The neurite outgrowth assay was performed at Neurofit SAS (France) as described below.
Pregnant Wistar rats (Janvier; France) were used for the study. They were delivered 6 days before their use. Upon arrival at Neurofit animal facility, they were housed one per cage and maintained in a room with controlled temperature (21-22° C.) and a reversed light-dark cycle (12 h/12 h; lights on: 17:30-05:30; lights off: 05:30-17:30) with food and water available ad libitum.
Female Wistar rats of 17 days gestation were killed by cervical dislocation and the fetuses were removed from the uterus. Their brains were placed in ice-cold medium of Leibovitz (L15, Gibco, Fisher bioblock, France). Cortices were dissected and meninges were carefully removed. The cortical neurons were dissociated by trypsinization for 30 min at 37° C. (trypsin-EDTA, Gibco) in presence of 0.1 mg/ml DNAse I (Roche, France). The reaction was stopped by addition of Dulbecco's Modified Eagle Medium (DMEM; Gibco) with 10% of fetal bovine serum (FBS; Gibco). The suspension was triturated with a 10-ml pipette and using a needle syringe 21 G and centrifuged at 350×g for 10 min at room temperature. The pellet of dissociated cells was resuspended in a medium consisting of Neurobasal (Gibco) supplemented with 2% B27 supplement (Gibco), 0.5 mM L-Glutamine (Gibco), an antibiotic-antimicotic mixture. Viable cells were counted in a Neubauer cytometer using the trypan blue exclusion test (Sigma). Cells were seeded at a density of 10000 cells per well in 96-well plate (Costar) precoated with poly-L-lysine. Test compound at different concentrations were added to the cultures. Donepezil (positive control) was tested at 250 nM.
After 72 h (3 days) of plating, cultures were fixed with paraformaldehyde in PBS (4%, Sigma) for 30 min at 4° C. Then, cells were successively permeabilized with 0.1% Triton X100 for 30 min, saturated with PBS containing 3% of BSA and were incubated 1 h with anti-beta III tubulin antibody (Sigma) at 1/10 000 in PBS containing 0.5% of BSA. Cells were washed three times with PBS containing 0.5% of BSA, and they were incubated 1 h with goat anti-mouse antibody coupled with AF488 (Invitrogen A11001) diluted at 1/1000 in PBS containing 0.5% of BSA. Finally, nuclei were staining with DAPI 1 mg/ml at 1/1000 in PBS containing 0.5% of BSA. After rinsing with PBS, the plate was filmed and neurite networks were examined and analyzed using High-Content Screening (CellInsight, Thermo Scientific). The average number of neurites per neuron and the average total length of neurites per neuron were the main parameters analyzed. Analysis of data was performed using analysis of variance (ANOVA). The Fisher's Protected Least Significant Difference test was used for multiple comparisons. A p value ≤0.05 was considered significant. The software used is StatView 5.0 from SAS Institut.

5-HT2A [5] = target: T1, 5-HT2A; assay: Serotonin 5-HT2A in vitro cellular IPOne antagonism assay; format: cell-based; set-up: host or cells: CHO-K1; conditions: CHO-K1 cells, IPOne HTRF, reference agonist a-Me-5HT; read-out: 5-HT2A IPOne Antagonist Activity
Description: as §1, with “IPOne Antagonism” for “IPOne Agonism”, “5-HT2A TPOne” for “5-HT2A IPOne”, “FAST-0505I) in antagonism mode” for “FAST-0505I)”, “with […]” for “with 5%”
For antagonist testing, a reference agonist a-Me-5HT was added and fluorescence signal monitored for several minutes, followed by addition of 20 μl of assay buffer plus 20 μl of test compound or reference antagonist ketanserin, in each well. The plate was incubated for 60 min. at 37° C. with 5% CO2.
as §2

T1 sequence (P28223 whole entry): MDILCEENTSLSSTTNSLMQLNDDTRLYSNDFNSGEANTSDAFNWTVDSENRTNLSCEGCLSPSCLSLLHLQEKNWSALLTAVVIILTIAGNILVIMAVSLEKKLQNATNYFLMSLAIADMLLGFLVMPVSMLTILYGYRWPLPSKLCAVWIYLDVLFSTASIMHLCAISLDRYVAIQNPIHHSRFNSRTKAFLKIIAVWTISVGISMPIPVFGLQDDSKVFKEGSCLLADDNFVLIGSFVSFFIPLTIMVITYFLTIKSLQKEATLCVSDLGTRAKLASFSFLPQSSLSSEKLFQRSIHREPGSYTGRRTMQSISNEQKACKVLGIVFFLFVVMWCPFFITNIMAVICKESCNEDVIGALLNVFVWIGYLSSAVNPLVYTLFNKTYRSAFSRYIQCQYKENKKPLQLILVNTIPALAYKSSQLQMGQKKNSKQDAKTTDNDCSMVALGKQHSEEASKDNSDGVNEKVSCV

Structure (SMILES)	activation of the 5HT2A sensor assay in agonist mode (5HT2A sensor [1])	competition with 5-HT in the 5HT2A sensor assay in antagonist mode (5HT2A sensor [2])	pEC50 (5-HT2A [3])	pIC50 (5-HT2A [4])	Increase in Neurite Length (rat cortical neurons)	Increase in Neurite Number (rat cortical neurons)	Increase in Number of Branchpoints (rat cortical neurons)	pIC50 (5-HT2A [5])
CCN(CC)C(=O)[C@@H]1C=C2c3cccc4[nH]c(Br)c(c34)C[C@H]2N(C)C1 [BOL148]	do not activate the 5HT2A sensor assay in agonist mode	can compete with 5HT binding to 5HT2A						
C[C@@H](N)Cn1ccc2nc(OCc3ccccc3)ccc21 [Compound 2, (R)-1-(5-(benzyloxy)-1H-pyrrolo[3,2-b]pyridin-1-yl)propan-2-amine]			< 5.00	< 5.00				
C[C@H](Cn1ccc2cc(OCc3cccc(F)c3)ccc21)N(C)C [Compound 9, (R)-1-(5-((3-fluorobenzyl)oxy)-1H-indol-1-yl)-N,N-dimethylpropan-2-amine]			< 5.00	6.00 to 7.00	A	A	A	7.00 to 8.00
CN[C@H](C)Cc1ccc2c(c1)OCO2 [L-MDMA]	do not activate the 5HT2A sensor assay in agonist mode							
CCN(CC)[C@H](C)Cn1ccc2cc(OCc3ccccc3)ccc21 [Compound 11, (R)-1-(5-(benzyloxy)-1H-indol-1-yl)-N,N-diethylpropan-2-amine]			< 5.00	5.00 to 6.00	A	A	A	6.00 to 7.00
C[C@H](Cn1ccc2nc(OCc3ccccc3)ccc21)N(C)C [Compound 1, (R)-1-(5-(benzyloxy)-1H-pyrrolo[3,2-b]pyridin-1-yl)-N,N-dimethylpropan-2-amine]			< 5.00	6.00 to 7.00	A	A	A	6.00 to 7.00
C[C@@H](N)Cn1ccc2cc(OCc3ccccc3F)ccc21 [Compound 7, (R)-1-(5-((2-fluorobenzyl)oxy)-1H-indol-1-yl)propan-2-amine]			5.00 to 6.00	5.00 to 6.00	B	A	A	
C[C@H](Cn1ccc2cc(OCc3ccccc3)ccc21)N(C)C [Compound 3, (R)-1-(5-(benzyloxy)-1H-indol-1-yl)-N,N-dimethylpropan-2-amine]			< 5.00	6.00 to 7.00	A	B	B	7.00 to 8.00
O=C(c1ccc(F)cc1)C1CCN(CCn2c(=O)[nH]c3ccccc3c2=O)CC1 [Ketanserin]	do not activate the 5HT2A sensor assay in agonist mode	can compete with 5HT binding to 5HT2A						
C[C@@H](N)Cn1ccc2cc(OCc3ccc(F)cc3)ccc21 [Compound 5, (R)-1-(5-((4-fluorobenzyl)oxy)-1H-indol-1-yl)propan-2-amine]			5.00 to 6.00	6.00 to 7.00	B	B	B	6.00 to 7.00
C[C@H](Cn1ccc2cc(OCc3ccc(F)cc3)ccc21)N(C)C [Compound 8, (R)-1-(5-((4-fluorobenzyl)oxy)-1H-indol-1-yl)-N,N-dimethylpropan-2-amine]			< 5.00	7.00 to 8.00	A	A	A	> 8.00
COc1cc(CC(C)N)c(OC)cc1I (stereo not drawn) [DOI]	activate the 5HT2A sensor assay in agonist mode							
CCN(CC)C(=O)[C@@H]1C=C2c3cccc4[nH]cc(c34)C[C@H]2N(C)C1 [LSD]	activate the 5HT2A sensor assay in agonist mode							
C[C@H](Cn1ccc2cc(OCc3ccccc3F)ccc21)N(C)C [Compound 10, (R)-1-(5-((2-fluorobenzyl)oxy)-1H-indol-1-yl)-N,N-dimethylpropan-2-amine]			< 5.00	7.00 to 8.00	A	A	A	6.00 to 7.00
C[C@@H](N)Cn1ccc2cc(OCc3cccc(F)c3)ccc21 [Compound 6, (R)-1-(5-((3-fluorobenzyl)oxy)-1H-indol-1-yl)propan-2-amine]			5.00 to 6.00	6.00 to 7.00	A	B	A	6.00 to 7.00
CN[C@H](C)Cn1ccc2cc(OCc3ccccc3)ccc21 [Compound 4, (R)-1-(5-(benzyloxy)-1H-indol-1-yl)-N-methylpropan-2-amine]			< 5.00	5.00 to 6.00	A	A	A	6.00 to 7.00
C[C@H](Cn1ccc2cc(OCc3ccccc3)ccc21)N1CCCC1 [Compound 12, (R)-5-(benzyloxy)-1-(2-(pyrrolidin-1-yl)propyl)-1H-indole]			< 5.00	5.00 to 6.00	A	A	B	6.00 to 7.00
CN(C)CCc1c[nH]c2ccccc12 [DMT, N,N-dimethyltryptamine]	activate the 5HT2A sensor assay in agonist mode							
